{
  "source": "ChEMBL document CHEMBL4020735",
  "about": "“Design, synthesis, and evaluation of multitarget-directed ligands against Alzheimer's disease based on the fusion of donepezil and curcumin” (Bioorg Med Chem, 2017)",
  "key": {"Acetylcholinesterase": {"molecular_target": "Acetylcholinesterase (Electrophorus electricus, UniProt O42275)", "sequence (O42275 whole entry)": "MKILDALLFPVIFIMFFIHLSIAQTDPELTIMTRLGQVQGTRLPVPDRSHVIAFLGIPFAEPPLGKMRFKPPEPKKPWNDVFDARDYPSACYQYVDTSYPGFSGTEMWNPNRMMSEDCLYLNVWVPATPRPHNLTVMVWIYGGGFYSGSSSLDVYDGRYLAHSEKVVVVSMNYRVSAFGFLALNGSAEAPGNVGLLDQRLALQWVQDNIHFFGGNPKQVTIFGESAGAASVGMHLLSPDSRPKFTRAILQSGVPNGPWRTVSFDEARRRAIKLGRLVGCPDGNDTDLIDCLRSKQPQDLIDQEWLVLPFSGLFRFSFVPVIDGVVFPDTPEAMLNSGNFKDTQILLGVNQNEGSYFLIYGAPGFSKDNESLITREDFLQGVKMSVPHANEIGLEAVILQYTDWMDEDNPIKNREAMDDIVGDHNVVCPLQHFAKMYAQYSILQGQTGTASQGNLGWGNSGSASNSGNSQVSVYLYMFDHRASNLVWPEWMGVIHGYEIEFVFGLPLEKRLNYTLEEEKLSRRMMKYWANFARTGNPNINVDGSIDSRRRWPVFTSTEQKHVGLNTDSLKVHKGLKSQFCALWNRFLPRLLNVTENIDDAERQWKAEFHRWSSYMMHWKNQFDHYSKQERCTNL", "description": "Inhibition of electric eel AChE using acetylthiocholine iodide as substrate preincubated for 15 mins followed by substrate addition by spectrophotometric analysis"}, "Cholinesterase": {"molecular_target": "Cholinesterase (Equus caballus, UniProt P81908)", "sequence (P81908 whole entry)": "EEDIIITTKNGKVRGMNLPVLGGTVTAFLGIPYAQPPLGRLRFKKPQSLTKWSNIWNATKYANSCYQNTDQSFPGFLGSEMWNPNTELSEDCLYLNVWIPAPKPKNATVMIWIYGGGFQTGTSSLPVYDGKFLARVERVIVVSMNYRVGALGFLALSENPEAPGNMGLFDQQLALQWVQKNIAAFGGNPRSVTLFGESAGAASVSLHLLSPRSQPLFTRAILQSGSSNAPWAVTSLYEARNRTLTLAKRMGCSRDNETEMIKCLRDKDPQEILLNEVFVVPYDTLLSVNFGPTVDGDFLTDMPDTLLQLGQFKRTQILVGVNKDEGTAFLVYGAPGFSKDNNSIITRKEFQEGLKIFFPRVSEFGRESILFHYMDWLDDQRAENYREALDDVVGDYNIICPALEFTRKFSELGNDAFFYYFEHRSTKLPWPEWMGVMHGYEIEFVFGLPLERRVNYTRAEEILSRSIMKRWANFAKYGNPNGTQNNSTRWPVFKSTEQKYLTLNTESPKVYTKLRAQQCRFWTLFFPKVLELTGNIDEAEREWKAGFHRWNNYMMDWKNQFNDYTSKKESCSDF", "description": "Inhibition of equine serum BuChE using acetylthiocholine iodide as substrate preincubated for 15 mins followed by substrate addition by spectrophotometric analysis"}, "[1]": {"molecular_target": "Amyloid-beta precursor protein (Homo sapiens) (UniProt P05067)", "sequence (P05067 whole entry, the tested form may be a part)": "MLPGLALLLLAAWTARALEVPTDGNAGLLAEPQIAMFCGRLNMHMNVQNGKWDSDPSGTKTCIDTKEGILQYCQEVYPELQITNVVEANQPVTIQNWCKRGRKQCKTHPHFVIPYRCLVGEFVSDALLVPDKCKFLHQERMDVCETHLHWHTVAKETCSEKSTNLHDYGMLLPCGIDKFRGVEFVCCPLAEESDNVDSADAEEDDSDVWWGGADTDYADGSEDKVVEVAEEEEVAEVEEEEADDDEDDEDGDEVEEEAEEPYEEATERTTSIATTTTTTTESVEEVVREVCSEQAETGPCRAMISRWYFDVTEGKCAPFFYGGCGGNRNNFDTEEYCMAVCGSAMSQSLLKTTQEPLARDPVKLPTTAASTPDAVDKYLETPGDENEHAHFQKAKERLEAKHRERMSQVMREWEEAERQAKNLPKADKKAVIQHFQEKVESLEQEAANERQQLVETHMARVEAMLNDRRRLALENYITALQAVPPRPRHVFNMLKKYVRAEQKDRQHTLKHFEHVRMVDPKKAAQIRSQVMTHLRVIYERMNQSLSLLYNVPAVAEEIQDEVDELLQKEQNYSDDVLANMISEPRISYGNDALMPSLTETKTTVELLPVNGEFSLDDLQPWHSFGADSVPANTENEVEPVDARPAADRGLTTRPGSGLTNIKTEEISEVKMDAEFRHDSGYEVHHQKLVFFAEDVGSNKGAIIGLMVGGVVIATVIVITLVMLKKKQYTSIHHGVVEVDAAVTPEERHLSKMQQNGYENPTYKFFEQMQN", "assay": "Inhibition of self-mediated aggregation of amyloid beta (1 to 42 residues) (unknown origin) at 20 uM after 48 hrs by Thioflavin T fluorescence assay relative to control"}, "[2]": {"assay": "Antioxidant activity assessed as trolox equivalent of APPH-induced radical scavenging activity at 0.117 to 10 uM preincubated for 10 mins followed by AAPH addition measured every minute for 90 mins by ORAC fluorescein assay", "type": "functional"}, "[3]": {"assay": "Permeability of the compound at […] after 10 hrs by PAMPA", "type": "physicochemical", "conditions": "read-out: permeability"}, "[4]": {"molecular_target": "Acetylcholinesterase (Electrophorus electricus) (UniProt O42275)", "sequence (O42275 24-633 limits assumed)": "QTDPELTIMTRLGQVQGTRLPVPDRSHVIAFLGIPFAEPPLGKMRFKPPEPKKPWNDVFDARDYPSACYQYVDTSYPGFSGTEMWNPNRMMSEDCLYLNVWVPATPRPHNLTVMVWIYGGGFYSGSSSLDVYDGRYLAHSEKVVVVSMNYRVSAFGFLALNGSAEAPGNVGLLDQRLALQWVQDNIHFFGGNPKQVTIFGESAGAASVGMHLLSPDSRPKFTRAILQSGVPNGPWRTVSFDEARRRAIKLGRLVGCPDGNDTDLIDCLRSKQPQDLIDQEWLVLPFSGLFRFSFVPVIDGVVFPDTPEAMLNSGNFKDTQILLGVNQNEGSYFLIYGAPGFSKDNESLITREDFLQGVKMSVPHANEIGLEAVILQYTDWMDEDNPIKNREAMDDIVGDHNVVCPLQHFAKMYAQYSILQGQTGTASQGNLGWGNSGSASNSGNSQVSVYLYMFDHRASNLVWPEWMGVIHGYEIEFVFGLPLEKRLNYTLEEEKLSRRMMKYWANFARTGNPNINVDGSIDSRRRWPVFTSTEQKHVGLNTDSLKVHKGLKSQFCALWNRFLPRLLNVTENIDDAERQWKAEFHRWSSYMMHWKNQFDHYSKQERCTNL", "assay": "Mixed type inhibition of electric eel AChE using acetylthiocholine iodide as substrate preincubated for 15 mins followed by substrate addition by Lineweaver-Burk plot analysis"}, "[5]": {"assay": "Metal chelating activity of compound assessed as compound-Cu2+ complex formation at 20 uM after 30 mins by UV-Vis spectrophotometric analysis", "type": "functional"}, "[6]": {"assay": "Metal chelating activity of compound assessed as compound-Fe2+ complex formation at 20 uM after 30 mins by UV-Vis spectrophotometric analysis", "type": "functional"}, "[7]": {"assay": "Metal chelating activity of compound assessed as compound-Zn2+ complex formation at 20 uM after 30 mins by UV-Vis spectrophotometric analysis", "type": "functional"}},
  "note": "The source made the active and inactive calls. The calls are words filed in the database; no cut-off is given here.",
  "data": [
    {"compound": "COc1ccc(C(=O)C(CCC2CCN(Cc3cccc(C)c3)CC2)C(C)=O)cc1OC", "note": "(stereo not given)", "values": [
      {"measurement": "IC50", "setting": "Acetylcholinesterase", "value": 263, "unit": "nM"},
      {"measurement": "IC50", "setting": "Cholinesterase", "value": 2, "unit": "µM"}
    ]},
    {"compound": "COc1cccc(C(=O)C(CCC2CCN(Cc3cccc(C)c3)CC2)C(C)=O)c1", "note": "(stereo not given)", "values": [
      {"measurement": "IC50", "setting": "Acetylcholinesterase", "value": 555, "unit": "nM"},
      {"measurement": "IC50", "setting": "Cholinesterase", "value": 1.85, "unit": "µM"}
    ]},
    {"compound": "COc1ccc(C(=O)CC(=O)CC2CCN(Cc3ccccc3)CC2)cc1OC", "values": [
      {"measurement": "inhibition", "setting": "[1]", "value": 22, "unit": "%"},
      {"measurement": "Activity", "setting": "[2]", "value": 1.1, "unit": "equiv"},
      {"measurement": "Papp at 10 h", "setting": "[3]", "value": 12.1, "unit": "×10⁻⁶ cm/s"},
      {"measurement": "IC50", "setting": "Acetylcholinesterase", "value": 149, "unit": "nM"},
      {"measurement": "IC50", "setting": "Cholinesterase", "value": 2.33, "unit": "µM"}
    ]},
    {"compound": "COc1cc(C(=O)C(CCC2CCN(Cc3cccc(C)c3)CC2)C(C)=O)ccc1O", "note": "(stereo not given)", "values": [
      {"measurement": "IC50", "setting": "Acetylcholinesterase", "value": 961, "unit": "nM"},
      {"measurement": "IC50", "setting": "Cholinesterase", "value": 3.36, "unit": "µM"}
    ]},
    {"compound": "COc1ccc(C(=O)CC(=O)CC2CCN(Cc3cccc(C)c3)CC2)cc1O", "values": [
      {"measurement": "inhibition", "setting": "[1]", "value": 30.4, "unit": "%"},
      {"measurement": "Activity", "setting": "[2]", "value": 2.49, "unit": "equiv"},
      {"measurement": "Papp at 10 h", "setting": "[3]", "value": 11.3, "unit": "×10⁻⁶ cm/s"},
      {"measurement": "IC50", "setting": "Acetylcholinesterase", "value": 228, "unit": "nM"},
      {"measurement": "IC50", "setting": "Cholinesterase", "value": 9.78, "unit": "µM"}
    ]},
    {"compound": "COc1cc(C(=O)C(CCC2CCN(Cc3ccccc3)CC2)C(C)=O)ccc1O", "note": "(stereo not given)", "values": [
      {"measurement": "IC50", "setting": "Acetylcholinesterase", "value": 2050, "unit": "nM"},
      {"measurement": "IC50", "setting": "Cholinesterase", "value": 15.6, "unit": "µM"}
    ]},
    {"compound": "COc1ccc(C(=O)C(CCC2CCN(Cc3ccccc3)CC2)C(C)=O)cc1OC", "note": "(stereo not given)", "values": [
      {"measurement": "IC50", "setting": "Acetylcholinesterase", "value": 373, "unit": "nM"},
      {"measurement": "IC50", "setting": "Cholinesterase", "value": 2.82, "unit": "µM"}
    ]},
    {"compound": "COc1ccc(C(=O)C(CCC2CCN(Cc3ccccc3)CC2)C(C)=O)cc1", "note": "(stereo not given)", "values": [
      {"measurement": "IC50", "setting": "Acetylcholinesterase", "value": 517, "unit": "nM"},
      {"measurement": "IC50", "setting": "Cholinesterase", "value": 1.64, "unit": "µM"}
    ]},
    {"compound": "COc1cc(/C=C/C(=O)CC(=O)/C=C/c2ccc(O)c(OC)c2)ccc1O", "values": [
      {"measurement": "Activity", "setting": "[2]", "value": 2.52, "unit": "equiv"}
    ]},
    {"compound": "COc1cccc(C(=O)C(CC2CCN(Cc3ccccc3)CC2)C(C)=O)c1", "note": "(stereo not given)", "values": [
      {"measurement": "IC50", "setting": "Acetylcholinesterase", "value": 1780, "unit": "nM"},
      {"measurement": "IC50", "setting": "Cholinesterase", "value": 14.4, "unit": "µM"}
    ]},
    {"compound": "COc1ccc(C(=O)C(CC2CCN(Cc3ccccc3)CC2)C(C)=O)cc1OC", "note": "(stereo not given)", "values": [
      {"measurement": "IC50", "setting": "Acetylcholinesterase", "value": 2550, "unit": "nM"},
      {"measurement": "IC50", "setting": "Cholinesterase", "value": 20.8, "unit": "µM"}
    ]},
    {"compound": "COCOc1ccc(C(=O)C(CCC2CCN(Cc3cccc(C)c3)CC2)C(C)=O)cc1OC", "note": "(stereo not given)", "values": [
      {"measurement": "IC50", "setting": "Acetylcholinesterase", "value": 340, "unit": "nM"},
      {"measurement": "IC50", "setting": "Cholinesterase", "value": 3.09, "unit": "µM"}
    ]},
    {"compound": "COc1ccc(C(=O)CC(=O)CC2CCN(Cc3ccccc3)CC2)cc1O", "values": [
      {"measurement": "inhibition", "setting": "[1]", "value": 45.3, "unit": "%"},
      {"measurement": "Activity", "setting": "[2]", "value": 3.07, "unit": "equiv"},
      {"measurement": "inhibition", "setting": "[4]", "value": "Active"},
      {"measurement": "Activity", "setting": "[5]", "value": "Active"},
      {"measurement": "Activity", "setting": "[6]", "value": "Active"},
      {"measurement": "Activity", "setting": "[7]", "value": "inactive"},
      {"measurement": "Papp at 10 h", "setting": "[3]", "value": 11.8, "unit": "×10⁻⁶ cm/s"},
      {"measurement": "IC50", "setting": "Acetylcholinesterase", "value": 187, "unit": "nM"},
      {"measurement": "IC50", "setting": "Cholinesterase", "value": 12.4, "unit": "µM"}
    ]},
    {"compound": "COc1ccc(C(=O)C(CCC2CCN(Cc3cccc(C)c3)CC2)C(C)=O)cc1O", "note": "(stereo not given)", "values": [
      {"measurement": "IC50", "setting": "Acetylcholinesterase", "value": 621, "unit": "nM"},
      {"measurement": "IC50", "setting": "Cholinesterase", "value": 16.6, "unit": "µM"}
    ]}
  ]
}
